# Laboratory results taken from PubChem BioAssay (NCI).
#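 Following 48 hours of exposure in 96-well plates, responses at five concentrations were used to interpolate endpoints linearly. GI50 = concentration required for 50% inhibition of growth. TGI denotes the concentration required for complete inhibition of growth.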
# Assays:
# Assay in all cases: inhibition of tumour cell growth, NCI panel, 48 h
# U251 CNS = tested on: U251 CNS
# 786-0 renal = tested on: 786-0 renal
# DU-145 prostate = tested on: DU-145 prostate
# OVCAR-4 ovarian = tested on: OVCAR-4 ovarian
# HT29 colon = tested on: HT29 colon
# UO-31 renal = tested on: UO-31 renal
# CCRF-CEM leukemia = tested on: CCRF-CEM leukemia
# SF-539 CNS = tested on: SF-539 CNS
# MDA-MB-231 breast = tested on: MDA-MB-231 breast
# SNB-75 CNS = tested on: SNB-75 CNS
# A549 NSCLC = tested on: A549 NSCLC
# KM12 colon = tested on: KM12 colon
# OVCAR-5 ovarian = tested on: OVCAR-5 ovarian
# ACHN renal = tested on: ACHN renal
# NCI-H23 lung = tested on: NCI-H23 lung
# COLO 205 colon = tested on: COLO 205 colon
# M14 melanoma = tested on: M14 melanoma
# NCI-H460 lung = tested on: NCI-H460 lung
# HCC-2998 colon = tested on: HCC-2998 colon
# BT-549 breast = tested on: BT-549 breast
# T-47D breast = tested on: T-47D breast
# HCT-116 colon = tested on: HCT-116 colon
# SK-OV-3 ovarian = tested on: SK-OV-3 ovarian
# EKVX NSCLC = tested on: EKVX NSCLC
# SK-MEL-2 melanoma = tested on: SK-MEL-2 melanoma
# HOP-62 NSCLC = tested on: HOP-62 NSCLC
# SN12C renal = tested on: SN12C renal
# HOP-92 NSCLC = tested on: HOP-92 NSCLC
# NCI-H522 lung = tested on: NCI-H522 lung
# SF-268 CNS = tested on: SF-268 CNS
# MCF7 breast = tested on: MCF7 breast
# MDA-MB-435 = tested on: MDA-MB-435
# OVCAR-8 ovarian = tested on: OVCAR-8 ovarian
# A498 renal = tested on: A498 renal
# NCI-H226 lung = tested on: NCI-H226 lung
# IGROV1 ovarian = tested on: IGROV1 ovarian
# SK-MEL-5 melanoma = tested on: SK-MEL-5 melanoma
# CAKI-1 renal = tested on: CAKI-1 renal
# NCI/ADR-RES ovarian = tested on: NCI/ADR-RES ovarian
# MOLT-4 leukemia = tested on: MOLT-4 leukemia
# SNB-19 CNS = tested on: SNB-19 CNS
# SK-MEL-28 melanoma = tested on: SK-MEL-28 melanoma
# LOX IMVI melanoma = tested on: LOX IMVI melanoma
# PC-3 prostate = tested on: PC-3 prostate
# SF-295 CNS = tested on: SF-295 CNS
# HCT-15 colon = tested on: HCT-15 colon
# OVCAR-3 ovarian = tested on: OVCAR-3 ovarian
# SR leukemia = tested on: SR leukemia
# MALME-3M melanoma = tested on: MALME-3M melanoma
# RPMI-8226 leukemia = tested on: RPMI-8226 leukemia
# UACC-257 melanoma = tested on: UACC-257 melanoma
# UACC-62 melanoma = tested on: UACC-62 melanoma
# SW-620 colon = tested on: SW-620 colon
# K-562 leukemia = tested on: K-562 leukemia
# TK-10 renal = tested on: TK-10 renal
# HL-60(TB) leukemia = tested on: HL-60(TB) leukemia
smiles,measurement,setting,value
COc1cc(Nc2ncccc2C(=O)Nc2nc3ccc(F)cc3s2)cc(OC)c1OC,GI50,U251 CNS,3.01 µM
same,TGI,U251 CNS,> 100 µM
same,GI50,786-0 renal,5.51 µM
same,TGI,786-0 renal,> 100 µM
same,GI50,DU-145 prostate,5.5 µM
same,TGI,DU-145 prostate,> 100 µM
same,GI50,OVCAR-4 ovarian,2.73 µM
same,TGI,OVCAR-4 ovarian,> 100 µM
same,GI50,HT29 colon,5.15 µM
same,TGI,HT29 colon,> 100 µM
same,GI50,UO-31 renal,3.37 µM
same,TGI,UO-31 renal,> 100 µM
same,GI50,CCRF-CEM leukemia,3.26 µM
same,TGI,CCRF-CEM leukemia,> 100 µM
same,GI50,SF-539 CNS,3.84 µM
same,TGI,SF-539 CNS,> 100 µM
same,GI50,MDA-MB-231 breast,4.61 µM
same,TGI,MDA-MB-231 breast,> 100 µM
same,GI50,SNB-75 CNS,4.48 µM
same,TGI,SNB-75 CNS,> 100 µM
same,GI50,A549 NSCLC,3.11 µM
same,TGI,A549 NSCLC,> 100 µM
same,GI50,KM12 colon,3.79 µM
same,TGI,KM12 colon,> 100 µM
same,GI50,OVCAR-5 ovarian,25.6 µM
same,TGI,OVCAR-5 ovarian,> 100 µM
same,GI50,ACHN renal,4.82 µM
same,TGI,ACHN renal,> 100 µM
same,GI50,NCI-H23 lung,2.27 µM
same,TGI,NCI-H23 lung,> 100 µM
same,GI50,COLO 205 colon,3.04 µM
same,TGI,COLO 205 colon,> 100 µM
same,GI50,M14 melanoma,3.08 µM
same,TGI,M14 melanoma,> 100 µM
same,GI50,NCI-H460 lung,3.3 µM
same,TGI,NCI-H460 lung,> 100 µM
same,GI50,HCC-2998 colon,2.93 µM
same,TGI,HCC-2998 colon,6.96 µM
same,GI50,BT-549 breast,2.63 µM
same,TGI,BT-549 breast,> 100 µM
same,GI50,T-47D breast,2.3 µM
same,TGI,T-47D breast,7.86 µM
same,GI50,HCT-116 colon,3.49 µM
same,TGI,HCT-116 colon,> 100 µM
same,GI50,SK-OV-3 ovarian,7.4 µM
same,TGI,SK-OV-3 ovarian,> 100 µM
same,GI50,EKVX NSCLC,2.7 µM
same,TGI,EKVX NSCLC,> 100 µM
same,GI50,SK-MEL-2 melanoma,2.34 µM
same,TGI,SK-MEL-2 melanoma,8.04 µM
same,GI50,HOP-62 NSCLC,5.78 µM
same,TGI,HOP-62 NSCLC,> 100 µM
same,GI50,SN12C renal,4.73 µM
same,TGI,SN12C renal,> 100 µM
same,GI50,HOP-92 NSCLC,1.48 µM
same,TGI,HOP-92 NSCLC,5.91 µM
same,GI50,NCI-H522 lung,1.54 µM
same,TGI,NCI-H522 lung,5.1 µM
same,GI50,SF-268 CNS,6.56 µM
same,TGI,SF-268 CNS,> 100 µM
same,GI50,MCF7 breast,3.23 µM
same,TGI,MCF7 breast,> 100 µM
same,GI50,MDA-MB-435,2.87 µM
same,TGI,MDA-MB-435,> 100 µM
same,GI50,OVCAR-8 ovarian,3.62 µM
same,TGI,OVCAR-8 ovarian,> 100 µM
same,GI50,A498 renal,3.45 µM
same,TGI,A498 renal,> 100 µM
same,GI50,NCI-H226 lung,2.95 µM
same,TGI,NCI-H226 lung,> 100 µM
same,GI50,IGROV1 ovarian,1.77 µM
same,TGI,IGROV1 ovarian,6.89 µM
same,GI50,SK-MEL-5 melanoma,1.63 µM
same,TGI,SK-MEL-5 melanoma,5.14 µM
same,GI50,CAKI-1 renal,3.15 µM
same,TGI,CAKI-1 renal,> 100 µM
same,GI50,NCI/ADR-RES ovarian,2.92 µM
same,TGI,NCI/ADR-RES ovarian,> 100 µM
same,GI50,MOLT-4 leukemia,2.11 µM
same,TGI,MOLT-4 leukemia,5.85 µM
same,GI50,SNB-19 CNS,3.49 µM
same,TGI,SNB-19 CNS,> 100 µM
same,GI50,SK-MEL-28 melanoma,4.33 µM
same,TGI,SK-MEL-28 melanoma,> 100 µM
same,GI50,LOX IMVI melanoma,3.87 µM
same,TGI,LOX IMVI melanoma,> 100 µM
same,GI50,PC-3 prostate,2.73 µM
same,TGI,PC-3 prostate,> 100 µM
same,GI50,SF-295 CNS,2.55 µM
same,TGI,SF-295 CNS,> 100 µM
same,GI50,HCT-15 colon,4.38 µM
same,TGI,HCT-15 colon,> 100 µM
same,GI50,OVCAR-3 ovarian,2.77 µM
same,TGI,OVCAR-3 ovarian,33 µM
same,GI50,SR leukemia,2.97 µM
same,TGI,SR leukemia,> 100 µM
same,GI50,MALME-3M melanoma,3.27 µM
same,TGI,MALME-3M melanoma,> 100 µM
O=c1[nH]c2ccccc2cc1-c1nc2ccc(Cl)cc2[nH]1,GI50,U251 CNS,3.87 µM
same,TGI,U251 CNS,> 100 µM
same,GI50,786-0 renal,7.42 µM
same,TGI,786-0 renal,> 100 µM
same,GI50,DU-145 prostate,7.68 µM
same,TGI,DU-145 prostate,64.2 µM
same,GI50,OVCAR-4 ovarian,5.09 µM
same,TGI,OVCAR-4 ovarian,> 100 µM
same,GI50,HT29 colon,4.24 µM
same,TGI,HT29 colon,> 100 µM
same,GI50,UO-31 renal,3.31 µM
same,TGI,UO-31 renal,> 100 µM
same,GI50,CCRF-CEM leukemia,3.24 µM
same,TGI,CCRF-CEM leukemia,> 100 µM
same,GI50,SF-539 CNS,4.13 µM
same,TGI,SF-539 CNS,17.2 µM
same,GI50,MDA-MB-231 breast,3.25 µM
same,TGI,MDA-MB-231 breast,85.9 µM
same,GI50,SNB-75 CNS,2.98 µM
same,TGI,SNB-75 CNS,> 100 µM
same,GI50,A549 NSCLC,5.15 µM
same,TGI,A549 NSCLC,> 100 µM
same,GI50,KM12 colon,0.385 µM
same,TGI,KM12 colon,> 100 µM
same,GI50,OVCAR-5 ovarian,51.7 µM
same,TGI,OVCAR-5 ovarian,> 100 µM
same,GI50,ACHN renal,2.45 µM
same,TGI,ACHN renal,> 100 µM
same,GI50,RPMI-8226 leukemia,1.42 µM
same,TGI,RPMI-8226 leukemia,6.78 µM
same,GI50,NCI-H23 lung,4.7 µM
same,TGI,NCI-H23 lung,> 100 µM
same,GI50,COLO 205 colon,3.25 µM
same,TGI,COLO 205 colon,> 100 µM
same,GI50,M14 melanoma,2.86 µM
same,TGI,M14 melanoma,> 100 µM
same,GI50,NCI-H460 lung,2.61 µM
same,TGI,NCI-H460 lung,> 100 µM
same,GI50,HCC-2998 colon,11 µM
same,TGI,HCC-2998 colon,> 100 µM
same,GI50,BT-549 breast,2.99 µM
same,TGI,BT-549 breast,> 100 µM
same,GI50,T-47D breast,3.33 µM
same,TGI,T-47D breast,> 100 µM
same,GI50,UACC-257 melanoma,13.9 µM
same,TGI,UACC-257 melanoma,> 100 µM
same,GI50,HCT-116 colon,2.66 µM
same,TGI,HCT-116 colon,21.4 µM
same,GI50,SK-OV-3 ovarian,2.22 µM
same,TGI,SK-OV-3 ovarian,8.01 µM
same,GI50,EKVX NSCLC,2.35 µM
same,TGI,EKVX NSCLC,> 100 µM
same,GI50,UACC-62 melanoma,2.83 µM
same,TGI,UACC-62 melanoma,> 100 µM
same,GI50,HOP-62 NSCLC,6.79 µM
same,TGI,HOP-62 NSCLC,59.3 µM
same,GI50,SN12C renal,3.17 µM
same,TGI,SN12C renal,> 100 µM
same,GI50,HOP-92 NSCLC,1.48 µM
same,TGI,HOP-92 NSCLC,9.29 µM
same,GI50,NCI-H522 lung,6.79 µM
same,TGI,NCI-H522 lung,> 100 µM
same,GI50,SF-268 CNS,6.09 µM
same,TGI,SF-268 CNS,> 100 µM
same,GI50,SW-620 colon,4.81 µM
same,TGI,SW-620 colon,> 100 µM
same,GI50,MCF7 breast,1.4 µM
same,TGI,MCF7 breast,> 100 µM
same,GI50,MDA-MB-435,4.39 µM
same,TGI,MDA-MB-435,> 100 µM
same,GI50,K-562 leukemia,3.85 µM
same,TGI,K-562 leukemia,> 100 µM
same,GI50,OVCAR-8 ovarian,6.51 µM
same,TGI,OVCAR-8 ovarian,> 100 µM
same,GI50,A498 renal,2.48 µM
same,TGI,A498 renal,15.7 µM
same,GI50,NCI-H226 lung,2.71 µM
same,TGI,NCI-H226 lung,> 100 µM
same,GI50,IGROV1 ovarian,1.36 µM
same,TGI,IGROV1 ovarian,> 100 µM
same,GI50,SK-MEL-5 melanoma,3.4 µM
same,TGI,SK-MEL-5 melanoma,32.5 µM
same,GI50,CAKI-1 renal,1.02 µM
same,TGI,CAKI-1 renal,> 100 µM
same,GI50,TK-10 renal,2.51 µM
same,TGI,TK-10 renal,> 100 µM
same,GI50,NCI/ADR-RES ovarian,6.09 µM
same,TGI,NCI/ADR-RES ovarian,> 100 µM
same,GI50,SNB-19 CNS,29.8 µM
same,TGI,SNB-19 CNS,> 100 µM
same,GI50,SK-MEL-28 melanoma,6.66 µM
same,TGI,SK-MEL-28 melanoma,45.7 µM
same,GI50,LOX IMVI melanoma,4.43 µM
same,TGI,LOX IMVI melanoma,> 100 µM
same,GI50,PC-3 prostate,3.71 µM
same,TGI,PC-3 prostate,29.1 µM
same,GI50,SF-295 CNS,9.63 µM
same,TGI,SF-295 CNS,> 100 µM
same,GI50,HCT-15 colon,2.91 µM
same,TGI,HCT-15 colon,> 100 µM
same,GI50,OVCAR-3 ovarian,2.37 µM
same,TGI,OVCAR-3 ovarian,7.25 µM
same,GI50,HL-60(TB) leukemia,3.24 µM
same,TGI,HL-60(TB) leukemia,10.4 µM
same,GI50,MALME-3M melanoma,> 100 µM
same,TGI,MALME-3M melanoma,> 100 µM
